Reference: ChEMBL document CHEMBL1201862, “PubChem BioAssay data set” (2004)
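Protocol summary: plate cells (96-well), add compound at 5 concentrations, incubate 48 h, interpolate endpoints linearly. GI50 marks 50% less growth.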 Calls of active or inactive are those of the source. No stated cut-off is given here; in the data, active = GI50 up to about 1.1 µM and inactive = higher.

How the values were obtained:
Test in all cases: DTP human tumour cell line panel, 48 h
786-0 = system: 786-0
A498 = system: A498
A549 = system: A549
ACHN = system: ACHN
CAKI-1 = system: CAKI-1
CCRF-CEM = system: CCRF-CEM
DLD-1 = system: DLD-1
DMS-114 = system: DMS-114
DMS-273 = system: DMS-273
EKVX = system: EKVX
HCC 2998 = system: HCC 2998
HCT-116 = system: HCT-116
HCT-15 = system: HCT-15
HL-60 = system: HL-60
HOP-18 = system: HOP-18
HOP-92 = system: HOP-92
HT-29 = system: HT-29
K562 = system: K562
KM-20L2 = system: KM-20L2
LOX IMVI = system: LOX IMVI
M14 = system: M14
M19-MEL = system: M19-MEL
MOLT-4 = system: MOLT-4
Malme-3M = system: Malme-3M
NCI-H226 = system: NCI-H226
NCI-H23 = system: NCI-H23
NCI-H460 = system: NCI-H460
NCI-H522 = system: NCI-H522
OVCAR-3 = system: OVCAR-3
OVCAR-4 = system: OVCAR-4
OVCAR-5 = system: OVCAR-5
OVCAR-8 = system: OVCAR-8
RPMI-8226 = system: RPMI-8226
RXF 393 = system: RXF 393
SF-295 = system: SF-295
SF-539 = system: SF-539
SK-MEL-28 = system: SK-MEL-28
SK-MEL-2 = system: SK-MEL-2
SK-MEL-5 = system: SK-MEL-5
SN12C = system: SN12C
SNB-19 = system: SNB-19
SNB-75 = system: SNB-75
SNB-78 = system: SNB-78
SR = system: SR
SW-620 = system: SW-620
TK-10 = system: TK-10
U-251 = system: U-251
UACC-257 = system: UACC-257
UACC-62 = system: UACC-62
UO-31 = system: UO-31
COLO 205 = system: COLO 205
HOP-62 = system: HOP-62
IGROV-1 = system: IGROV-1
KM12 = system: KM12
MCF7 = system: MCF7
NCI/ADR-RES = system: NCI/ADR-RES
SF-268 = system: SF-268
SK-OV-3 = system: SK-OV-3

## O=C1c2cccc([N+](=O)[O-])c2C(=O)c2nccnc21
786-0
  GI50: 1.78 µM (inactive)
A498
  GI50: 5.32 µM (inactive)
A549
  GI50: 1.66 µM (inactive)
ACHN
  GI50: 3.19 µM (inactive)
CAKI-1
  GI50: 4.86 µM (inactive)
CCRF-CEM
  GI50: 2.54 µM (inactive)
DLD-1
  GI50: 2.84 µM (inactive)
DMS-114
  GI50: 0.982 µM (active)
DMS-273
  GI50: 3.5 µM (inactive)
EKVX
  GI50: 1.81 µM (inactive)
HCC 2998
  GI50: 2.62 µM (inactive)
HCT-116
  GI50: 1.63 µM (inactive)
HCT-15
  GI50: 1.47 µM
HL-60
  GI50: 2.15 µM (inactive)
HOP-18
  GI50: 1.69 µM (inactive)
HOP-92
  GI50: 7.1 µM (inactive)
HT-29
  GI50: 2.25 µM (inactive)
K562
  GI50: 1.91 µM (inactive)
KM-20L2
  GI50: 2.7 µM (inactive)
LOX IMVI
  GI50: 1.04 µM (active)
M14
  GI50: 1.57 µM (inactive)
M19-MEL
  GI50: 0.122 µM (active)
MOLT-4
  GI50: 2.5 µM (inactive)
Malme-3M
  GI50: 1.63 µM (inactive)
NCI-H226
  GI50: 1.94 µM (inactive)
NCI-H23
  GI50: 1.25 µM (inactive)
NCI-H460
  GI50: 1.46 µM (inactive)
NCI-H522
  GI50: 1.36 µM (inactive)
OVCAR-3
  GI50: 1.87 µM (inactive)
OVCAR-4
  GI50: 1.42 µM (inactive)
OVCAR-5
  GI50: 3.81 µM (inactive)
OVCAR-8
  GI50: 2.25 µM (inactive)
RPMI-8226
  GI50: 3.05 µM (inactive)
RXF 393
  GI50: 1.95 µM (inactive)
SF-295
  GI50: 1.82 µM (inactive)
SF-539
  GI50: 1.47 µM (inactive)
SK-MEL-28
  GI50: 1.63 µM (inactive)
SK-MEL-2
  GI50: 1.45 µM (inactive)
SK-MEL-5
  GI50: 0.25 µM (active)
SN12C
  GI50: 1.66 µM (inactive)
SNB-19
  GI50: 1.69 µM (inactive)
SNB-75
  GI50: 1.07 µM (active)
SNB-78
  GI50: 3.09 µM (inactive)
SR
  GI50: 2.05 µM (inactive)
SW-620
  GI50: 1.73 µM (inactive)
TK-10
  GI50: 2.06 µM (inactive)
U-251
  GI50: 1.4 µM (inactive)
UACC-257
  GI50: 0.502 µM (active)
UACC-62
  GI50: 1.32 µM (inactive)
UO-31
  GI50: 1.27 µM (inactive)

## O=C1Nc2ccccc2Nc2ccncc21
A498
  GI50: > 100 µM (inactive)
A549
  GI50: > 100 µM (inactive)
CAKI-1
  GI50: > 100 µM (inactive)
CCRF-CEM
  GI50: > 100 µM (inactive)
COLO 205
  GI50: > 100 µM (inactive)
DLD-1
  GI50: > 100 µM (inactive)
DMS-114
  GI50: > 100 µM (inactive)
DMS-273
  GI50: > 100 µM (inactive)
EKVX
  GI50: > 100 µM (inactive)
HCC 2998
  GI50: > 100 µM (inactive)
HCT-116
  GI50: > 100 µM (inactive)
HCT-15
  GI50: > 100 µM
HL-60
  GI50: > 100 µM (inactive)
HOP-18
  GI50: > 100 µM (inactive)
HOP-62
  GI50: > 100 µM (inactive)
HOP-92
  GI50: > 100 µM (inactive)
HT-29
  GI50: > 100 µM (inactive)
IGROV-1
  GI50: > 100 µM (inactive)
K562
  GI50: > 100 µM (inactive)
KM-20L2
  GI50: > 100 µM (inactive)
KM12
  GI50: > 100 µM (inactive)
LOX IMVI
  GI50: > 100 µM (inactive)
M19-MEL
  GI50: > 100 µM (inactive)
MCF7
  GI50: > 100 µM (inactive)
MOLT-4
  GI50: > 100 µM (inactive)
Malme-3M
  GI50: > 100 µM (inactive)
NCI-H226
  GI50: > 100 µM (inactive)
NCI-H23
  GI50: > 100 µM (inactive)
NCI-H460
  GI50: > 100 µM (inactive)
NCI-H522
  GI50: > 100 µM (inactive)
NCI/ADR-RES
  GI50: > 100 µM (inactive)
OVCAR-3
  GI50: > 100 µM (inactive)
OVCAR-4
  GI50: > 100 µM (inactive)
OVCAR-5
  GI50: > 100 µM (inactive)
OVCAR-8
  GI50: > 100 µM (inactive)
RPMI-8226
  GI50: > 100 µM (inactive)
RXF 393
  GI50: > 100 µM (inactive)
SF-268
  GI50: > 100 µM (inactive)
SF-295
  GI50: > 100 µM (inactive)
SF-539
  GI50: > 100 µM (inactive)
SK-MEL-28
  GI50: > 100 µM (inactive)
SK-MEL-2
  GI50: > 100 µM (inactive)
SK-MEL-5
  GI50: > 100 µM (inactive)
SK-OV-3
  GI50: > 100 µM (inactive)
SN12C
  GI50: > 31.6 µM (inactive)
SNB-19
  GI50: > 100 µM (inactive)
SNB-75
  GI50: > 76 µM (inactive)
SNB-78
  GI50: > 100 µM (inactive)
SW-620
  GI50: > 100 µM (inactive)
U-251
  GI50: > 100 µM (inactive)
UACC-257
  GI50: > 100 µM (inactive)
UACC-62
  GI50: > 100 µM (inactive)
UO-31
  GI50: > 100 µM (inactive)
